From ChEMBL document CHEMBL5518189, “Design, synthesis and biological evaluation of 1,2,3-triazole benzothiazole derivatives as tubulin polymerization inhibitors with potent anti-esophageal cancer activities” (Eur J Med Chem, 2024)
Activity calls are given as the source filed them. The rule behind the calls is not given here.

Tests used:
[1] = system: ECa-109; test: Effect on MST1 level in human EC109 cells at 40 to 60 nM measured after 48 hrs; format: functional, cell-based; conditions: dose 40-60 nM
[2] = system: ECa-109 cell line; test: Induction of cell cycle arrest in human EC109 cells assessed as downregulation of CDC25C level at 40 to 60 nM measured after 48 hrs by Western blot analysis; format: functional, cell-based; conditions: dose 40-60 nM
[3] = system: Cell membrane; test: Induction of mitochondrial membrane depolarization in human KYSE-30 cells assessed as increase in caspase 9 activity at 40 to 60 nM incubated for 24 hrs by flow cytometry analysis; format: cell membranes; conditions: dose 40-60 nM
[4] = system: KYSE-30; test: Induction of cell cycle arrest in human KYSE-30 cells assessed as downregulation of CDC25C level at 40 to 60 nM measured after 48 hrs by Western blot analysis; format: functional, cell-based; conditions: dose 40-60 nM
[5] = target: T1, Tubulin (Homo sapiens) (UniProt P68371+Q9H4B7+P0DPH7+P68366+Q13509+Q71U36+P04350+Q3ZCM7+P07437+P68363+Q9BQE3+Q6PEY2+Q13885+Q9BVA1+Q9BUF5); test: Inhibition of tubulin polymerization (unknown origin) at 0.3 to 3 uM measured upto 4500 secs by fluorescence based analysis; format: protein-complex assay; conditions: dose 0.3-3 µM, time <= 4500.0 sec
[6] = system: ECa-109 cell line; test: Induction of apoptosis in human EC109 cells assessed as effect on Mcl-1 level at 40 to 60 nM by flow cytometry analysis; format: functional, cell-based; conditions: dose 40-60 nM
[7] = target: T1, Tubulin (Homo sapiens); test: Inhibition of tubulin polymerization in human EC109 cells assessed as appearance of multinucleation at 20 to 40 nM incubated for 6 hrs by immunofluorescence staining based fluorescence microscopic analysis; format: cell-based; conditions: dose 20-40 nM
[8] = system: ECa-109 cell line; test: Inhibition of colony formation in human EC109 cells at 20 to 40 nM incubated for 7 days by crystal violet staining based analysis; format: functional, cell-based; conditions: dose 20-40 nM, time 7.0 day
[9] = system: KYSE-30; test: Induction of cell cycle arrest in human KYSE-30 cells assessed as accumulation of cells at G2/M phase at 0 to 40 nM measured after 48 hrs by propidium iodide staining based flow cytometry analysis (reference value: 13.87%); format: functional; conditions: dose 0-40 nM
[10] = system: ECa-109; test: Downregulation of MST phosphorylation level in human EC109 cells at 40 to 60 nM measured after 48 hrs; format: functional, cell-based; conditions: dose 40-60 nM
[11] = system: KYSE-30; test: Antiproliferative activity against human KYSE-30 cells assessed as reduction in cell viability at 70 nM measured after 48 hrs by CCK-8 method relative to control; format: functional
[12] = system: HCT-116; test: Antiproliferative activity against human HCT-116 cells assessed as inhibition of cell growth measured after 48 hrs by CCK8 method; format: functional, cell-based; conditions: HCT-116, 48 h
[13] = system: ECa-109; test: Downregulation of YAP level in human EC109 cells incubated for 48 hrs; format: functional, cell-based; conditions: dose 40-80 nM
[14] = system: ECa-109 cell line; test: Induction of apoptosis in human EC109 cells assessed as increase in caspase 3 activity at 40 to 100 nM measured after 48 hrs by Western blot analysis; format: functional, cell-based; conditions: dose 40-100 nM
[15] = system: KYSE-30; test: Induction of apoptosis in human KYSE-30 cells assessed as increase in Noxa expression level at 40 to 60 nM by flow cytometry analysis; format: functional, cell-based; conditions: dose 40-60 nM
[16] = system: KYSE-30; test: Induction of apoptosis in human KYSE-30 cells assessed as increase in cleaved PARP level at 40 to 100 nM measured after 48 hrs by Western blot analysis; format: functional, cell-based; conditions: dose 40-100 nM
[17] = system: ECa-109 cell line; test: Induction of apoptosis in human EC109 cells assessed as effect on Bcl-xl level at 40 to 60 nM by flow cytometry analysis; format: functional, cell-based; conditions: dose 40-60 nM
[18] = system: KYSE-30; test: Induction of apoptosis in human KYSE-30 cells measured after 48 hrs by annexin V-FITC and PI staining based flow cytometry analysis; format: functional, cell-based; conditions: dose 20-40 nM
[19] = system: KYSE-30; test: Induction of apoptosis in human KYSE-30 cells assessed as effect on Bcl-xl level at 40 to 60 nM by flow cytometry analysis; format: functional, cell-based; conditions: dose 40-60 nM
[20] = system: ECa-109 cell line; test: Induction of apoptosis in human EC109 cells assessed as decrease in pro-caspase 3 level at 40 to 100 nM measured after 48 hrs by Western blot analysis; format: functional, cell-based; conditions: dose 40-100 nM
[21] = system: KYSE-30; test: Induction of cell cycle arrest in human KYSE-30 cells assessed as effect on cyclin B1 level at 40 to 60 nM measured after 48 hrs by Western blot analysis; format: functional, cell-based; conditions: dose 40-60 nM
[22] = system: KYSE-30; test: Induction of cell cycle arrest in human KYSE-30 cells assessed as downregulation of Wee1 phosphorylation level at 40 to 60 nM measured after 48 hrs by Western blot analysis; format: functional, cell-based; conditions: dose 40-60 nM
[23] = system: KYSE-30; test: Induction of apoptosis in human KYSE-30 cells assessed as decrease in pro-caspase 3 level at 40 to 100 nM measured after 48 hrs by Western blot analysis; format: functional, cell-based; conditions: dose 40-100 nM

In the case of `COc1ccc(CN(C(=O)Cn2cc(CSc3nc4ccccc4s3)nn2)c2cc(OC)c(OC)c(OC)c2)cc1O`, the Activity [1] is reported as “inactive”, the Activity [2] is reported as “Active” and the Activity [3] is reported as “Active”. For the same compound, the Activity [4] was “Active”, the inhibition [5] was “Active” and the Activity [6] was “inactive”. The inhibition [7] was “Active”, the inhibition [8] was “Active” and the Activity [9] was 28.15%. For the same compound, the Activity [10] was “Active”, the Activity [11] was over 90% and the IC50 [12] was 62 nM. For the same compound, the Activity [13] was “Dose-Dependent Effect”, the Activity [14] was “Active” and the Activity [15] was “Active”. The Activity [16] was “Active”, the Activity [17] was “inactive” and the Activity [18] was “Dose-Dependent Effect”. For the same compound, the Activity [19] was “inactive”, the Activity [20] was “Active” and the Activity [21] was “inactive”. For the same compound, the Activity [22] was “Active” and the Activity [23] was “Active”.
